Drawing on ChEMBL document CHEMBL1124919, “Synthesis and biochemical studies of 7-substituted 4,6-androstadiene-3,17-diones as aromatase inhibitors” (J Med Chem, 1990), this text covers Km and Ki for 7 compounds.

Test system in the first data set: not listed separately
The experiment in a line: Apparent Km value was determined. The data set is classed as ADME.
In the case of `C[C@]12CCC(=O)C=C1CC[C@@H]1[C@@H]2CC[C@]2(C)C(=O)CC[C@@H]12` [ANDROSTENEDIONE], the Km is 0.051 µM.

Another data set concerns the target T1, Aromatase (Homo sapiens, UniProt P11511).
T1 sequence (P11511 whole entry): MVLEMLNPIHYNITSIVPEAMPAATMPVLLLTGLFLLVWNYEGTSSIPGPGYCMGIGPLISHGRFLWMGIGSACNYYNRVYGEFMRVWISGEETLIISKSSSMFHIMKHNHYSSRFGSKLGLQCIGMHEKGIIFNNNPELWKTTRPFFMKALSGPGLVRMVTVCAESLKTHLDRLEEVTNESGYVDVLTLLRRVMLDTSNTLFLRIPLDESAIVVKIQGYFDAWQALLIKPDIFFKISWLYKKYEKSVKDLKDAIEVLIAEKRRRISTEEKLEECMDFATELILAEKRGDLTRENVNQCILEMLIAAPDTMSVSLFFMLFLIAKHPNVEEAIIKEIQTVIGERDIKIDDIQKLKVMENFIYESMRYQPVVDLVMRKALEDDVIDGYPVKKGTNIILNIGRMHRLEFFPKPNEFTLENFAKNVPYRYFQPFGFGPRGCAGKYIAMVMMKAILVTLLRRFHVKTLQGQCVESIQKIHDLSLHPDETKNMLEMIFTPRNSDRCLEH
The experiment in a line: In vitro inhibition of human placental cytochrome P450 19A1.
In turn, `CC12CCC3C(C(CCc4ccc(N)cc4)=CC4=CC(=O)CCC43C)C1CCC2=O` (configuration not stated) registered an inhibition constant Ki of 88 nM.
`CC12CCC3C(C(c4ccccc4)=CC4=CC(=O)CCC43C)C1CCC2=O` (configuration not stated) showed a Ki of 1420 nM. Against the preceding compound, the Ki is about 16-fold higher.
On the same count and under the same terms, the figure for `CC12CCC3C(C(CCc4ccccc4)=CC4=CC(=O)CCC43C)C1CCC2=O` (configuration not stated) is 174 nM.
Regarding `CC12CCC3C(C(CCc4ccc([N+](=O)[O-])cc4)=CC4=CC(=O)CCC43C)C1CCC2=O` (configuration not stated), the affinity, expressed as Ki, was 95 nM.
`CC12CCC3C(C(Cc4ccc([N+](=O)[O-])cc4)=CC4=CC(=O)CCC43C)C1CCC2=O` (configuration not stated): the Ki was found to be 94 nM. The Ki values of the last two compounds are within 1.5-fold of each other.
`CC12CCC3C(C(Cc4ccc(N)cc4)=CC4=CC(=O)CCC43C)C1CCC2=O` (configuration not stated) had a Ki of 88 nM.

A word on the Km: it is the concentration of substrate that gives half-maximal velocity. As a reminder, the Ki is a dissociation constant, usually derived from enzyme kinetics or from competition with a known ligand. A higher Ki goes with weaker binding.
